Source: PubChem BioAssay (NCI)
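Five compound concentrations were applied to cells in 96-well plates for 48 hours; endpoints were derived by simple linear interpolation of the resulting dose-response curve. GI50 marks 50% less growth. At the TGI there is no net growth.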

Columns and labels:
Test in all cases: NCI tumour cell line growth inhibition, 48 h
[1] = test system: NCI-H460 lung
[2] = test system: MDA-MB-231 breast
[3] = test system: HCC-2998 colon
[4] = test system: SK-MEL-2 melanoma
[5] = test system: A498 renal
[6] = test system: COLO 205 colon
[7] = test system: NCI-H23 lung
[8] = test system: SF-268 CNS
[9] = test system: OVCAR-4 ovarian
[10] = test system: SF-295 CNS
[11] = test system: PC-3 prostate
[12] = test system: MDA-MB-435
[13] = test system: NCI/ADR-RES ovarian
[14] = test system: M14 melanoma
[15] = test system: ACHN renal
[16] = test system: T-47D breast
[17] = test system: OVCAR-5 ovarian
[18] = test system: NCI-H522 lung
[19] = test system: NCI-H226 lung
[20] = test system: UO-31 renal
[21] = test system: IGROV1 ovarian
[22] = test system: HS 578T breast
[23] = test system: SF-539 CNS
[24] = test system: DU-145 prostate
[25] = test system: HL-60(TB) leukemia
[26] = test system: BT-549 breast
[27] = test system: 786-0 renal
[28] = test system: K-562 leukemia
[29] = test system: HCT-116 colon
[30] = test system: RPMI-8226 leukemia
[31] = test system: HOP-92 NSCLC
[32] = test system: KM12 colon
[33] = test system: SK-OV-3 ovarian
[34] = test system: SN12C renal
[35] = test system: MALME-3M melanoma
[36] = test system: SNB-19 CNS
[37] = test system: SK-MEL-28 melanoma
[38] = test system: TK-10 renal
[39] = test system: UACC-62 melanoma
[40] = test system: HOP-62 NSCLC
[41] = test system: A549 NSCLC
[42] = test system: SNB-75 CNS
[43] = test system: LOX IMVI melanoma
[44] = test system: CCRF-CEM leukemia
[45] = test system: MCF7 breast
[46] = test system: OVCAR-8 ovarian
[47] = test system: SK-MEL-5 melanoma
[48] = test system: RXF 393 renal
[49] = test system: SW-620 colon
[50] = test system: HCT-15 colon
[51] = test system: MOLT-4 leukemia
[52] = test system: HT29 colon
[53] = test system: U251 CNS
[54] = test system: EKVX NSCLC
[55] = test system: CAKI-1 renal
[56] = test system: OVCAR-3 ovarian
[57] = test system: UACC-257 melanoma

COc1cc2c(cc1OCCCCCN1CCN(c3cc(=O)oc4ccccc34)CC1)N=C[C@@H]1CCCN1C2=O gave a GI50 [1] of 131 nM, a TGI [1] of 9.99 µM and a GI50 [2] of 27.7 nM. For the same compound, the TGI [2] was 730 nM, the GI50 [3] was 176 nM and the TGI [3] was 398 nM. It also gave a GI50 [4] of 198 nM, a TGI [4] of 533 nM and a GI50 [5] of 220 nM. It also gave a TGI [5] of 488 nM, a GI50 [6] of 42.2 nM and a TGI [6] of 280 nM. It also gave a GI50 [7] of 262 nM, a TGI [7] of 1100 nM and a TGI [8] of 2470 nM. The GI50 [9] was 358 nM, the TGI [9] was 1710 nM and the GI50 [10] was 331 nM. For the same compound, the TGI [10] was 3.16 µM, the GI50 [11] was 91.8 nM and the TGI [11] was 2340 nM. The GI50 [12] was 183 nM, the TGI [12] was 425 nM and the GI50 [13] was 1910 nM. The TGI [13] was over 22 µM, the GI50 [14] was 96.5 nM and the TGI [14] was 338 nM. It also gave a GI50 [15] of 461 nM, a TGI [15] of 2550 nM and a TGI [16] of 2280 nM. It also gave a GI50 [17] of 407 nM, a TGI [17] of 18.6 µM and a GI50 [18] of under 42.8 nM. It also gave a TGI [18] of 170 nM, a GI50 [19] of 184 nM and a TGI [19] of 485 nM. For the same compound, the GI50 [20] was 690 nM, the TGI [20] was 11.4 µM and the GI50 [21] was 83 nM. For the same compound, the TGI [21] was 401 nM, the GI50 [22] was 201 nM and the TGI [22] was 1840 nM. It also gave a GI50 [23] of 232 nM, a TGI [23] of 907 nM and a GI50 [24] of 221 nM. It also gave a TGI [24] of 3.55 µM, a GI50 [25] of under 45.3 nM and a TGI [25] of 1120 nM. It also gave a GI50 [26] of 158 nM, a TGI [26] of 778 nM and a GI50 [27] of 147 nM. For the same compound, the TGI [27] was 468 nM, the GI50 [28] was under 41.1 nM and the TGI [28] was 3.06 µM. The GI50 [29] was 88.9 nM, the TGI [29] was 336 nM and the GI50 [30] was under 39 nM. It also gave a TGI [30] of 285 nM, a TGI [31] of 178 nM and a GI50 [32] of 268 nM. It also gave a TGI [32] of 1380 nM, a GI50 [33] of 821 nM and a TGI [33] of over 41.3 µM. It also gave a GI50 [34] of 182 nM, a TGI [34] of 664 nM and a GI50 [35] of 219 nM. For the same compound, the TGI [35] was 536 nM, the GI50 [36] was 294 nM and the TGI [36] was 12.5 µM. It also gave a GI50 [37] of 437 nM, a TGI [37] of 1340 nM and a GI50 [38] of 175 nM. For the same compound, the TGI [38] was 13 µM, the GI50 [39] was 186 nM and the TGI [39] was 383 nM. For the same compound, the GI50 [40] was 151 nM, the TGI [40] was 438 nM and the GI50 [41] was 2560 nM. For the same compound, the TGI [41] was 11.5 µM, the TGI [42] was 343 nM and the GI50 [43] was under 38.7 nM. The TGI [43] was 450 nM, the GI50 [44] was 124 nM and the TGI [44] was 364 nM. It also gave a GI50 [45] of 93 nM, a TGI [45] of 4.95 µM and a GI50 [46] of 293 nM. For the same compound, the TGI [46] was 19.9 µM, the GI50 [47] was 206 nM and the TGI [47] was 481 nM. It also gave a GI50 [48] of 62.9 nM, a TGI [48] of 253 nM and a GI50 [49] of 242 nM. It also gave a TGI [49] of 6.66 µM, a GI50 [50] of 1020 nM and a TGI [50] of 7.27 µM. For the same compound, the GI50 [51] was 11.7 nM, the TGI [51] was 1410 nM and the GI50 [52] was 84.1 nM. For the same compound, the TGI [52] was 610 nM, the GI50 [53] was 63.3 nM and the TGI [53] was 2320 nM. It also gave a GI50 [54] of 848 nM, a TGI [54] of 4.65 µM and a GI50 [55] of 556 nM. It also gave a TGI [55] of 1860 nM, a GI50 [56] of 263 nM and a TGI [56] of 653 nM. The GI50 [57] was 1590 nM and the TGI [57] was 5.69 µM.
